The supplement of paper PMC10307832

Tests used:
Test in all cases: relative viability (nuclei count vs DMSO), 5 days (fraction); higher = more cells survive
[1] = test system: SK-LU-1
Outline: (§1)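 Relative viability divides the nuclei count in treated wells by that in vehicle wells. Lung cancer cell lines were seeded in 1536-well plates, dosed by pin tool the next day, and fixed and stained after 5 days in one step with final 0.05% Triton X-100, 1% formaldehyde and 1 ug/ml Hoechst. Dosing was a single drug or a fixed anchor-drug dose plus five library-drug doses (not always all listed) in √10 steps, and values are medians of duplicate plates imaged at 4×.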

[2] = test system: NCI-H1755
Outline: as §1

[3] = test system: NCI-H2342
Outline: as §1

[4] = test system: NCI-H460
Outline: as §1

[5] = test system: A-427
Outline: as §1

[6] = test system: PC-3 [JPC-3]
Outline: as §1

[7] = test system: NCI-H522
Outline: as §1

[8] = test system: NCI-H358
Outline: as §1

[9] = test system: NCI-H1975
Outline: as §1

[10] = test system: HOP-62
Outline: as §1

[11] = test system: NCI-H1915
Outline: as §1

[12] = test system: NCI-H2126
Outline: as §1

[13] = test system: NCI-H1792
Outline: as §1

[14] = test system: HCC-15
Outline: as §1

[15] = test system: SW 1573
Outline: as §1

[16] = test system: NCI-H1734
Outline: as §1

[17] = test system: LC-2-ad
Outline: as §1

[18] = test system: NCI-H2228
Outline: as §1

[19] = test system: NCI-H647
Outline: as §1

[20] = test system: NCI-H2347
Outline: as §1

[21] = test system: LXF-289
Outline: as §1

[22] = test system: RERF-LC-KJ
Outline: as §1

[23] = test system: LOU-NH91
Outline: as §1

[24] = test system: HCC-78
Outline: as §1

For `CC(C)Oc1cc(Nc2nc(N[C@@H](C)c3ccc(F)cn3)ncc2Cl)n[nH]1` [AZ23] + N=C(N)NC(=N)NCCc1ccccc1 [Phenformin] (partner 250 µM), the relative viability ([1]; first compound 0.03162 µM) was 0.586, the relative viability ([1]; first compound 0.3162 µM) was 0.517 and the relative viability ([2]; first compound 0.01 µM) was 0.689. It also gave a relative viability ([2]; first compound 0.03162 µM) of 0.651, a relative viability ([2]; first compound 0.3162 µM) of 0.673 and a relative viability ([3]; first compound 0.01 µM) of 0.683. It also gave a relative viability ([3]; first compound 0.03162 µM) of 0.634, a relative viability ([3]; first compound 0.3162 µM) of 0.564 and a relative viability ([4]; first compound 0.01 µM) of 0.335. For the same compound, the relative viability ([4]; first compound 0.03162 µM) was 0.601, the relative viability ([4]; first compound 0.3162 µM) was 0.549 and the relative viability ([5]; first compound 0.01 µM) was 0.301. It also gave a relative viability ([5]; first compound 0.03162 µM) of 0.365, a relative viability ([5]; first compound 0.3162 µM) of 0.281 and a relative viability ([6]; first compound 0.01 µM) of 0.502. The relative viability ([6]; first compound 0.03162 µM) was 0.453, the relative viability ([6]; first compound 0.3162 µM) was 0.476 and the relative viability ([7]; first compound 0.01 µM) was 0.711. For the same compound, the relative viability ([7]; first compound 0.03162 µM) was 0.662, the relative viability ([7]; first compound 0.3162 µM) was 0.656 and the relative viability ([8]; first compound 0.01 µM) was 0.369. The relative viability ([8]; first compound 0.03162 µM) was 0.347, the relative viability ([8]; first compound 0.3162 µM) was 0.348 and the relative viability ([9]; first compound 0.01 µM) was 0.43. It also gave a relative viability ([9]; first compound 0.03162 µM) of 0.416, a relative viability ([9]; first compound 0.3162 µM) of 0.397 and a relative viability ([10]; first compound 0.01 µM) of 0.684. For the same compound, the relative viability ([10]; first compound 0.03162 µM) was 0.792, the relative viability ([10]; first compound 0.3162 µM) was 0.79 and the relative viability ([11]; first compound 0.01 µM) was 0.4. For the same compound, the relative viability ([11]; first compound 0.03162 µM) was 0.373, the relative viability ([11]; first compound 0.3162 µM) was 0.372 and the relative viability ([12]; first compound 0.01 µM) was 0.51. The relative viability ([12]; first compound 0.03162 µM) was 0.539, the relative viability ([12]; first compound 0.3162 µM) was 0.532 and the relative viability ([13]; first compound 0.03162 µM) was 0.397. For the same compound, the relative viability ([13]; first compound 0.3162 µM) was 0.239, the relative viability ([14]; first compound 0.01 µM) was 0.555 and the relative viability ([14]; first compound 0.03162 µM) was 0.537. It also gave a relative viability ([14]; first compound 0.3162 µM) of 0.494, a relative viability ([15]; first compound 0.01 µM) of 0.347 and a relative viability ([15]; first compound 0.03162 µM) of 0.512. It also gave a relative viability ([15]; first compound 0.3162 µM) of 0.465, a relative viability ([16]; first compound 0.01 µM) of 0.335 and a relative viability ([16]; first compound 0.03162 µM) of 0.451. It also gave a relative viability ([16]; first compound 0.3162 µM) of 0.439, a relative viability ([17]; first compound 0.01 µM) of 0.544 and a relative viability ([17]; first compound 0.03162 µM) of 0.611. For the same compound, the relative viability ([17]; first compound 0.3162 µM) was 0.528, the relative viability ([18]; first compound 0.01 µM) was 0.401 and the relative viability ([18]; first compound 0.03162 µM) was 0.302. The relative viability ([18]; first compound 0.3162 µM) was 0.252, the relative viability ([19]; first compound 0.01 µM) was 0.558 and the relative viability ([19]; first compound 0.03162 µM) was 0.797. The relative viability ([19]; first compound 0.3162 µM) was 0.604, the relative viability ([20]; first compound 0.01 µM) was 0.341 and the relative viability ([20]; first compound 0.03162 µM) was 0.333. The relative viability ([20]; first compound 0.3162 µM) was 0.455, the relative viability ([21]; first compound 0.01 µM) was 0.591 and the relative viability ([21]; first compound 0.03162 µM) was 0.512. The relative viability ([21]; first compound 0.3162 µM) was 0.533, the relative viability ([22]; first compound 0.01 µM) was 0.455 and the relative viability ([22]; first compound 0.03162 µM) was 0.457. For the same compound, the relative viability ([22]; first compound 0.3162 µM) was 0.463, the relative viability ([23]; first compound 0.01 µM) was 0.713 and the relative viability ([23]; first compound 0.03162 µM) was 0.755. For the same compound, the relative viability ([23]; first compound 0.3162 µM) was 0.728, the relative viability ([24]; first compound 0.01 µM) was 0.692 and the relative viability ([24]; first compound 0.03162 µM) was 0.656. For the same compound, the relative viability ([24]; first compound 0.3162 µM) was 0.583.
